# According to BindingDB's records for doi:10.1021/jm101104z (University of Ljubljana, 2011):
# Legend:
# [1] = biological target: 17beta-hydroxysteroid dehydrogenase type 1 (Homo sapiens); experiment: Displacement of [3H]estrone human recombinant 17beta-HSD1 expressed in Escherichia coli BL21 (DE3)-RIL by competitive inhibition assay in presence of bacterial homogenate
# [2] = biological target: 17beta-hydroxysteroid dehydrogenase type 1 (Homo sapiens); experiment: Displacement of [3H]estrone human recombinant 17beta-HSD1 expressed in Escherichia coli BL21 (DE3)-RIL by scintillation counting in presence of bacterial homogenate
# [3] = biological target: 17beta-hydroxysteroid dehydrogenase type 1 (Homo sapiens); experiment: Inhibition of 17beta-HSD1
Ki [1],IC50 [2],IC50 [3],Structure (SMILES)
173 nM,360 nM,,CC(=O)c1cc2ccc(OS(=O)(=O)C(F)(F)F)cc2oc1=O [3-Acetyl-2-oxo-2H-chromen-7-yl trifluoromethanesulfonate]
143 nM,270 nM,,CC(=O)c1cc2ccc(-c3ccc(O)cc3)cc2oc1=O [3-Acetyl-7-(4-hydroxyphenyl)-2H-chromen-2-one]
585 nM,1140 nM,,COc1ccc(-c2ccc3cc(C(C)=O)c(=O)oc3c2)cc1 [3-Acetyl-7-(4-methoxyphenyl)-2H-chromen-2-one]
585 nM,1240 nM,,CC(=O)c1cc2ccc(-c3ccc(C)cc3)cc2oc1=O [3-Acetyl-7-para-tolyl-2H-chromen-2-one]
,,5 nM,"COc1cc(-c2nc3sc4c(O)cccc4c3c(=O)n2Cc2ccccc2)c(Br)c(OC)c1OC [3-Benzyl-2-(2-bromo-3,4,5-trimethoxy-phenyl)-8-hydroxy-3H-benzo[4,5]thieno[2,3-d]pyrimidin-4-one]"
